In paper PMC11219871, “Epigenetic-based differentiation therapy for Acute Myeloid Leukemia” (Nature Communications, 2024) one finds inhibition and IC50 data, which are given here for two molecules.

Holding throughout (experiment): Epigenetic panel (BPS Bioscience)
Common to all, as to assay type: biochemical

One test has as its target T1, EZH1 (Homo sapiens, UniProt Q92800).
T1 construct: purchased BPS Bioscience; Eurofins (HDAC4, 5, 7-11)
The essentials:
(§1)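 Binding at 10 μM was measured in duplicate for CM-444 and CM-1758 as part of a selectivity screen spanning many epigenetic readers, writers and erasers.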

The next test deals with T2, EZH2 (P132S) (Homo sapiens, UniProt Q15910, P132S).
T2 construct: purchased BPS Bioscience; Eurofins (HDAC4, 5, 7-11)
An outline of the steps:
as §1

A further test has as its target T3, EZH2 (Y641H) (Homo sapiens, UniProt Q15910, Y641H).
T3 construct: purchased BPS Bioscience; Eurofins (HDAC4, 5, 7-11)
An outline of the steps: as §1

Another test concerns the target T4, EZH2 (Y641N) (Homo sapiens, UniProt Q15910, Y641N).
T4 construct: purchased BPS Bioscience; Eurofins (HDAC4, 5, 7-11)
An outline of the steps:
as §1

The target in a further test is T5, JMJD1B (Homo sapiens, UniProt Q7LBC6).
T5 construct: purchased BPS Bioscience; Eurofins (HDAC4, 5, 7-11)
An outline of the steps: as §1

In the next test the target is T6, JMJD2E (Homo sapiens, UniProt B2RXH2).
T6 construct: purchased BPS Bioscience; Eurofins (HDAC4, 5, 7-11)
An outline of the steps: as §1

The target in a further test is T7, MLL1 (Homo sapiens, UniProt Q03164).
T7 construct: purchased BPS Bioscience; Eurofins (HDAC4, 5, 7-11)
The essentials: as §1

The next test has as its target T8, NSD2 (Homo sapiens, UniProt O96028).
T8 construct: purchased BPS Bioscience; Eurofins (HDAC4, 5, 7-11)
An outline of the steps: as §1

The target in a further test is T9, PHF8 (Homo sapiens, UniProt Q9UPP1).
T9 construct: purchased BPS Bioscience; Eurofins (HDAC4, 5, 7-11)
The essentials: as §1

The next test addresses T10, PRMT1 (Homo sapiens, UniProt Q99873).
T10 construct: purchased BPS Bioscience; Eurofins (HDAC4, 5, 7-11)
The essentials: as §1

The target in the next test is T11, PRMT8 (Homo sapiens, UniProt Q9NR22).
T11 construct: purchased BPS Bioscience; Eurofins (HDAC4, 5, 7-11)
The essentials: as §1

Another test deals with T12, PRMT9 (Homo sapiens, UniProt Q6P2P2).
T12 sequence (Q6P2P2 1-845): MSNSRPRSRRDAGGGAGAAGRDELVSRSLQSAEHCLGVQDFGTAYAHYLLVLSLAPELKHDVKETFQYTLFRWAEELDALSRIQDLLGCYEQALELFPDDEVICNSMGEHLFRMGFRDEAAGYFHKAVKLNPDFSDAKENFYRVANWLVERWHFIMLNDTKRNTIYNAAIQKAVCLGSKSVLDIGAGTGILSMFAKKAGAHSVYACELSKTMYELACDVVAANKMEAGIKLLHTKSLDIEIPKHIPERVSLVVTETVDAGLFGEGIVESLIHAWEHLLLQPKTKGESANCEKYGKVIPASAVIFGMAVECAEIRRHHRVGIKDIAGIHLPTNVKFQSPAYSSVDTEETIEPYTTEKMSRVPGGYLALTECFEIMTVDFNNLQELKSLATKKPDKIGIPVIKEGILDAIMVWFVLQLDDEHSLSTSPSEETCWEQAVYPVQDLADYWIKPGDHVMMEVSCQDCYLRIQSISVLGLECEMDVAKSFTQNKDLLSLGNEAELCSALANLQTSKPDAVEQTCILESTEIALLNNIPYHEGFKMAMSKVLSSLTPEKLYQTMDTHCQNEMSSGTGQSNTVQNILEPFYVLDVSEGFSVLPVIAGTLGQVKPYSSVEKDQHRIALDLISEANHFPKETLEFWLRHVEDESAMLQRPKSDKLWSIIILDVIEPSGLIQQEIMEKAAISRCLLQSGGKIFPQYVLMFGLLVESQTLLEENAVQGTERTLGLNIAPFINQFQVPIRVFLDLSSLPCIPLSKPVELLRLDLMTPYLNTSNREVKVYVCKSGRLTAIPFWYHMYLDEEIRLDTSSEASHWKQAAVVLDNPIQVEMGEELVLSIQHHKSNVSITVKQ
Particulars: for inhibition at 10 µM: read-out: % of inhibition. An outline of the steps:
as §1

Another test has as its target T13, SET8 (Homo sapiens, UniProt Q9NQR1).
T13 construct: purchased BPS Bioscience; Eurofins (HDAC4, 5, 7-11)
An outline of the steps: as §1

A further test addresses T14, SUV39H2 (Homo sapiens, UniProt Q9H5I1).
T14 construct: purchased BPS Bioscience; Eurofins (HDAC4, 5, 7-11)
An outline of the steps: as §1

T9 sequence (Q9UPP1 whole entry): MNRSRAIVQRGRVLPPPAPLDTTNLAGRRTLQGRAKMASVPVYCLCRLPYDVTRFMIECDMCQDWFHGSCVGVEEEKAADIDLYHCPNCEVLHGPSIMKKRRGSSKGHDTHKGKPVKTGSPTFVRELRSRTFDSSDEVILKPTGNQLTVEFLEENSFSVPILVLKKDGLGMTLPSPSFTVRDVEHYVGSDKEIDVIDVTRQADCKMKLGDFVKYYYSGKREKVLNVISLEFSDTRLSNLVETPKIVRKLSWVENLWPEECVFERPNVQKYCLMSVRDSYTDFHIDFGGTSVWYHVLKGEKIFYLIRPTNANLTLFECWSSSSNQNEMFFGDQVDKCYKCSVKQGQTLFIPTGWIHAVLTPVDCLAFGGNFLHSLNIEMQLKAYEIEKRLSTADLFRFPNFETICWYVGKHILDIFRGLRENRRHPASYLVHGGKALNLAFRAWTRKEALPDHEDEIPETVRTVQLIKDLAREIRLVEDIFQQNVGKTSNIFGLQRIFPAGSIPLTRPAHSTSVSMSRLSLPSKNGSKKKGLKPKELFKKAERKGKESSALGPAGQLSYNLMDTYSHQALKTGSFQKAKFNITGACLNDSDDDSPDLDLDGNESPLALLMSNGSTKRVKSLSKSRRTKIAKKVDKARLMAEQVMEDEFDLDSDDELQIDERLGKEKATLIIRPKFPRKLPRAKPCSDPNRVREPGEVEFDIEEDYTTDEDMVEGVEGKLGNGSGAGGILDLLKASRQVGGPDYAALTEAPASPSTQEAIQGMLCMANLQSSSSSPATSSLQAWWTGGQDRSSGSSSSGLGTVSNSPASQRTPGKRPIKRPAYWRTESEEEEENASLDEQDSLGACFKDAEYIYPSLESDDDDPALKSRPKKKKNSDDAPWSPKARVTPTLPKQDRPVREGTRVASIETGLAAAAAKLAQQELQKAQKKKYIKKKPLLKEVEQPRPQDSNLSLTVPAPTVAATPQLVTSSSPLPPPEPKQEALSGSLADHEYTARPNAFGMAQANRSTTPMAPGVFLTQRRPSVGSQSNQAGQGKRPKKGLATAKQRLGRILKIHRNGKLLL
T8 sequence (O96028 whole entry): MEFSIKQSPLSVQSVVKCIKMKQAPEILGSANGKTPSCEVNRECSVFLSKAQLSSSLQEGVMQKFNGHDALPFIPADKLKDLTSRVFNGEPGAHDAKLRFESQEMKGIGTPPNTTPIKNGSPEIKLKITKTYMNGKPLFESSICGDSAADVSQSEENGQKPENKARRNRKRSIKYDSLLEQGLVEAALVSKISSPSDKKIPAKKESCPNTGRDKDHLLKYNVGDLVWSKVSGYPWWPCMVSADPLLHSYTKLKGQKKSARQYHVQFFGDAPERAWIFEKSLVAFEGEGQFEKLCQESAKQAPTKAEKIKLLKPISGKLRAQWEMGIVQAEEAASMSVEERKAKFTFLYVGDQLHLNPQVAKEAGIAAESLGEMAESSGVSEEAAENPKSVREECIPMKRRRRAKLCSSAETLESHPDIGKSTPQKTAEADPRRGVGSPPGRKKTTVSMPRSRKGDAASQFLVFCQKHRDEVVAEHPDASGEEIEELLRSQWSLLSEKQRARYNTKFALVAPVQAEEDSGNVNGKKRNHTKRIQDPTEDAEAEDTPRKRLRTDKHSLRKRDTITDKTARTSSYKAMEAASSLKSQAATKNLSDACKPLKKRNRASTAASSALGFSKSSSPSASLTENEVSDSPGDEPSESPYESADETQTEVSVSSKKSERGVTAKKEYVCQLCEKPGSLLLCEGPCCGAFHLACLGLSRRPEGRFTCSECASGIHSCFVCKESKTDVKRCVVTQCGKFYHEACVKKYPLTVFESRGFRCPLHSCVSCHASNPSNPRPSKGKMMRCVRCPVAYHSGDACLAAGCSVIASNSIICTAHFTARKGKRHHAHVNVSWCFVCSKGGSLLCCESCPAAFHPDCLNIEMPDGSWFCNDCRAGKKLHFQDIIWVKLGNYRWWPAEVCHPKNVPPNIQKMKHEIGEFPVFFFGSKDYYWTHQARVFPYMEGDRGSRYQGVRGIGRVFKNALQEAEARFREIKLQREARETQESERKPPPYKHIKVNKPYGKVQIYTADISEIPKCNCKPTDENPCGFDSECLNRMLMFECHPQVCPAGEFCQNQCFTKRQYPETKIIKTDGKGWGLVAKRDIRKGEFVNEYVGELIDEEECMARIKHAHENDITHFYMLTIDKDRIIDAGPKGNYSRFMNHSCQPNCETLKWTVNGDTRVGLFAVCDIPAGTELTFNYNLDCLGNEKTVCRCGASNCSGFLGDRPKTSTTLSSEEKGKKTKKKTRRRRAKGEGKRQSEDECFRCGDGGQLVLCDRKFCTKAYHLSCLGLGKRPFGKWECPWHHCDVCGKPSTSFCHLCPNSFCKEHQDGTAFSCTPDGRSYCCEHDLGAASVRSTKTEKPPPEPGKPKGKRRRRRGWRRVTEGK
T14 sequence (Q9H5I1 whole entry): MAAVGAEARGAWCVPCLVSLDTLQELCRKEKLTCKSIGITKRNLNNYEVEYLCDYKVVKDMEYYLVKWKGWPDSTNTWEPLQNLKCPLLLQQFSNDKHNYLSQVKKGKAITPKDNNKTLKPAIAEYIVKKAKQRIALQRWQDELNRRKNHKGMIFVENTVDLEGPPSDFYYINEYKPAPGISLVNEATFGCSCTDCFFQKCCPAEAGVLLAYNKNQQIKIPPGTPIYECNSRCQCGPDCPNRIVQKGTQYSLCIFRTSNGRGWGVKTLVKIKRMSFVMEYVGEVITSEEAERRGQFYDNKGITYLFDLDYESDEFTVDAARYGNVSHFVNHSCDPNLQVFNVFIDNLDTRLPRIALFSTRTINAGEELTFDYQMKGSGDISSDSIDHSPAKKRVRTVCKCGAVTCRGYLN
T11 sequence (Q9NR22 whole entry): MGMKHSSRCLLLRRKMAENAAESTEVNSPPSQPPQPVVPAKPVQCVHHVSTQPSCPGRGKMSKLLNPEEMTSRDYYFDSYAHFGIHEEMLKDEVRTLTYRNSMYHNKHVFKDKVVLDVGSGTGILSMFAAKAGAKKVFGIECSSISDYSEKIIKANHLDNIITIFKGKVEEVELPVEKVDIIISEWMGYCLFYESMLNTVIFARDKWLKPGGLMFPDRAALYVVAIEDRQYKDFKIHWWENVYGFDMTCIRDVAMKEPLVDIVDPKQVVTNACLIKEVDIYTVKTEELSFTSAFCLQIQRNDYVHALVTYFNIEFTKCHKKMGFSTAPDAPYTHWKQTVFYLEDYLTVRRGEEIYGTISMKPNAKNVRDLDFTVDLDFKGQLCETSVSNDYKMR
T13 sequence (Q9NQR1 whole entry): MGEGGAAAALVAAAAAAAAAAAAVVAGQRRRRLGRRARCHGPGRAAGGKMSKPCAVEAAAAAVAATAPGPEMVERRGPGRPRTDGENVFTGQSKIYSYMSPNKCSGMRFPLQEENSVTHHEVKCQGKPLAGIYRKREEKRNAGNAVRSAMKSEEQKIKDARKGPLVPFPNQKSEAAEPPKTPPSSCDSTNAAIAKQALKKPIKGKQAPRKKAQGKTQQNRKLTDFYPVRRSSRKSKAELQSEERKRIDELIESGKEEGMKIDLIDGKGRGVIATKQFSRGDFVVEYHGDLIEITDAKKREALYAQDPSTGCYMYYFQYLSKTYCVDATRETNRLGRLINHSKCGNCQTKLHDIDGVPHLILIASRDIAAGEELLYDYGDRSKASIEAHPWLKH
T10 sequence (Q99873 whole entry): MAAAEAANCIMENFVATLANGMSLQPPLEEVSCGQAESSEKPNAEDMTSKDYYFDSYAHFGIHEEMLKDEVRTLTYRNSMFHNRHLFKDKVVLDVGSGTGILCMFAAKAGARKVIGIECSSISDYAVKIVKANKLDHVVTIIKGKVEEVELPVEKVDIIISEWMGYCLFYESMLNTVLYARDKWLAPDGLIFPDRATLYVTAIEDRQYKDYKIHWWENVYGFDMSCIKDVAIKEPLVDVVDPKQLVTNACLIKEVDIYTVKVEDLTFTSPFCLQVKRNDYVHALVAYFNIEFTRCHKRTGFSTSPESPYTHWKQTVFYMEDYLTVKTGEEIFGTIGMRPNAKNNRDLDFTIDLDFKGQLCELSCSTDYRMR
T6 sequence (B2RXH2 whole entry): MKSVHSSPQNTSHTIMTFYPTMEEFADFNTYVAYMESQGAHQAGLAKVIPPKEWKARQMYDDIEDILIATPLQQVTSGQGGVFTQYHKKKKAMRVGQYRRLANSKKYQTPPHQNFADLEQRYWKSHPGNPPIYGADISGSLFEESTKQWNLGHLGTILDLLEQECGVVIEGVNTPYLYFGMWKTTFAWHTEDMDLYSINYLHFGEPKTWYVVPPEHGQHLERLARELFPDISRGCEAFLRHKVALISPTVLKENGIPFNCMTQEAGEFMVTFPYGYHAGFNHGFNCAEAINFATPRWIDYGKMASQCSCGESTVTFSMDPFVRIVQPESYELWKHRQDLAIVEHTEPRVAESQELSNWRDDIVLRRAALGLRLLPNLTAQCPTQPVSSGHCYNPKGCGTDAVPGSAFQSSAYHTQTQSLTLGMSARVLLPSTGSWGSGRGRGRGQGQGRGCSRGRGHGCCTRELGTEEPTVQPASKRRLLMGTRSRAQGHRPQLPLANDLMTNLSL

As usually defined, the inhibition is the share of the control response that was lost under treatment. By IC50 is commonly meant the point on the concentration scale where inhibition reaches its midpoint. Read a high IC50 as a need for much substance. With `COc1cc2nc(-c3ccc(C)o3)cc(NCC3CCN(c4ncc(C(=O)NO)cn4)CC3)c2cc1OC` [CM-444, 2-[4-[[[6,7-dimethoxy-2-(5-methyl-2-furyl)-4-quinolyl]amino]methyl]-1-piperidyl]pyrimidine-5-carbohydroxamic acid], the inhibition at 10 µM worked out at 9% against EZH1; 0% at EZH2 (P132S); 0% on EZH2 (Y641H); 2% against EZH2 (Y641N); 6% on JMJD1B; 5% on JMJD2E. For the same molecule, the inhibition at 10 µM at MLL1 amounted to 0%; against NSD2, 35%; at PHF8 it was 6%; against PRMT1, 0%; against PRMT8, 0%; on PRMT9, 76%. For the same molecule, the inhibition at 10 µM turned out to be 4% against SET8 and 0% on SUV39H2. Further, on PRMT9, the midpoint of inhibition, the IC50, lay at 19.2 µM.

Take `COc1cc2nc(-c3cc(C)oc3C)cc(NCC3CCN(c4ncc(C(=O)NO)cn4)CC3)c2cc1OC` [CM-1758, 2-[4-[[[2-(2,5-dimethyl-3-furyl)-6,7-dimethoxy-4-quinolyl]amino]methyl] -1-piperidyl]pyrimidine-5-carbohydroxamic acid]: the inhibition at 10 µM worked out at 0% against EZH1; 0% on EZH2 (P132S); 0% against EZH2 (Y641H); 0% at EZH2 (Y641N); 11% on JMJD1B; 1% against JMJD2E. Further, the inhibition at 10 µM came out at 1% on MLL1; 16% against NSD2; 12% against PHF8; 0% on PRMT1; 0% on PRMT8; 52% on PRMT9. Also, the inhibition at 10 µM was 9% on SET8 and 1% at SUV39H2. Moreover, inhibition against PRMT9 was half-maximal at 22.7 µM (IC50).
